Entries after “also recorded” stand apart in the source; their conditions may differ. Where two headings read alike, the source gives them in different places.
Key:
E. coli β-glucuronidase = E. coli β-glucuronidase (Escherichia coli, UniProt P05804); experiment: biochemical
E. coli cells = experiment: microbe, parasite or virus in culture; conditions: Escherichia coli, 2 h
[1] = molecular target: endogenous GUS activity in whole E. coli cells (Escherichia coli, UniProt P05804); experiment: GUS cell based assay (whole E. coli cells, 4MUG); conditions: for potency shift, less potent in the cell-based assay compared to the enzyme assay: less potent in cells
Chain of endogenous GUS activity in whole E. coli cells (P05804 whole entry): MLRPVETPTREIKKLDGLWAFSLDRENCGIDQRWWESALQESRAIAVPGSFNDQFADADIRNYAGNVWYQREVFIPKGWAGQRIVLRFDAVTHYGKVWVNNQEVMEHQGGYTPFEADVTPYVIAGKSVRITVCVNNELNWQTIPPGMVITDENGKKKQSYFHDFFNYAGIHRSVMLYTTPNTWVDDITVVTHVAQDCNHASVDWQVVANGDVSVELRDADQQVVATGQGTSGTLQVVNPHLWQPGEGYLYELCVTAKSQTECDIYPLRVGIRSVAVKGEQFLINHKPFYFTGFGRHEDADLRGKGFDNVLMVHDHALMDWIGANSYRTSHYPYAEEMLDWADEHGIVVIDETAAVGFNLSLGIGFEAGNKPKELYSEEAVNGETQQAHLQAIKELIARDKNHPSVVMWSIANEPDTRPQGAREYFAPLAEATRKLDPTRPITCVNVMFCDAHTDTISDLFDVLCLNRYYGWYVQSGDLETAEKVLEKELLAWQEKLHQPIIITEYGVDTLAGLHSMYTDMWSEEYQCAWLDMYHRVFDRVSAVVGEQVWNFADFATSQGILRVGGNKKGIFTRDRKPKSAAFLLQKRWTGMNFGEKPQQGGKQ
Procedure: An E. coli cell based assay was developed in order to assess the activity of these drugs against whole cells, instead of purified enzyme. We took advantage of the well-known specificity and sensitivity of the 4MUG substrate to detect GUS activity in E. coli cells. This assay mimicked the enzyme assay in format, with the GUS enzyme replaced by live log-phase E. coli cells and the assay incubated for a longer time (2 hr) to detect GUS activity in these un-modified cells.
Cultures of E col (DH5α) carrying the empty expression vector pCMV5 were grown over night in LB containing carbenicilin (50 μM) and then used to initiate fresh LB/carbenicillin cultures adjusted to an initial OD of 0.1. These cultures were allowed to reach an OD of 0.6 and then washed twice with 50 mM HEPES, pH 7.4 containing carbenicillin 50 μM, and concentrated by centrifugation to an OD of 1 for use in the assay. The GUS cell based assay was performed in an identical manner as the enzyme assay except the Triton X-100 was left out of the assay buffer, the E. coli cells replaced the enzyme and the reaction was allowed to proceed for 2 hrs at 37° C. The resulting data was analyzed as outlined for the enzyme assay.

MAO = conditions: read-out: reported IC50 for MAO; depending on subclass of MAO-A or MAO-B, or total activity; cited from earlier work
E. coli GUS = E. coli GUS (Escherichia coli, UniProt P05804); experiment: GUS enzyme assay, manual version (purified E. coli GUS, 4MUG); type: biochemical
Chain of E. coli GUS (P05804 whole entry): as above
Procedure: The semi-automated GUS high throughput enzyme assay was performed as previously described and was used to screen the Prestwick Chemical Collection. The follow-up studies were performed manually in a similar manner with the exception of plate type and volumes, as briefly outlined here. Compound stock solutions were made in 100% DMSO. […] Final concentrations in the assembled assay were 50 mM HEPES. pH 7.4, 0.01% Triton X-100, 1% DMSO. […] The enzyme reaction was allowed to proceed for 20 minutes at 23° C., and was terminated by the addition of 40 μl of a 1M sodium carbonate solution. […] Fluorescence data, expressed in relative fluorescence units (RFU), were normalized to DMSO (100% activity) and “no enzyme” (0% activity) controls as maximum and minimum responses, respectively. The Bovine taurus GUS enzyme assay was performed in an identical manner except Bovine taurus GUS enzyme (1 nM) was used instead of bacterial GUS. The IC50 values and Hill slopes were calculated from concentration response data using GraphPad Prism software (GraphPad Software Inc., La Jolla, Calif.) employing either four-parameter or a three parameter (fixed bottom) curve fit.

[2] = molecular target: T1, mammalian GUS purified from Bovine taurus liver (Bos taurus, UniProt A3KMY8); experiment: Bovine taurus GUS enzyme assay; type: biochemical
T1 sequence (A3KMY8 1-652): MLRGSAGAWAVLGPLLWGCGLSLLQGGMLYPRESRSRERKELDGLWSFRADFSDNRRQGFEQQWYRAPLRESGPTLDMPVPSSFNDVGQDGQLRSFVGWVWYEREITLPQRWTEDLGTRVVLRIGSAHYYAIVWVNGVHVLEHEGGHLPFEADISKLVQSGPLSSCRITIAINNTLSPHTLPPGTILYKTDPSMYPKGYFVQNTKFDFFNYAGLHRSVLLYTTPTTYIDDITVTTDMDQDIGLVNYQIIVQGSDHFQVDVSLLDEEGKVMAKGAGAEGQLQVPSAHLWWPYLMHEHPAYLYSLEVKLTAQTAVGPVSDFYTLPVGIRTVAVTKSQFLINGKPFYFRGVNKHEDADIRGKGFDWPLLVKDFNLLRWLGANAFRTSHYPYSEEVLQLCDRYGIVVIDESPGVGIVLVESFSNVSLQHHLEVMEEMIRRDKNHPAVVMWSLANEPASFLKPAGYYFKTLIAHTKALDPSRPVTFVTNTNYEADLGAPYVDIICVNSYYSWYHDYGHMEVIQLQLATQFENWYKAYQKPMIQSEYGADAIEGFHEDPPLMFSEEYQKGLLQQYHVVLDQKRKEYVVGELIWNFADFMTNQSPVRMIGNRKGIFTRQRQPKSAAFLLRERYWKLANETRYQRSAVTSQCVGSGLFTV

monoamine oxidase = conditions: read-out: reported in vitro IC50 for inhibiting monoamine oxidase; rat brain homogenates; cited from earlier work
[3] = running text, read-out: average IC50 in the E. coli GUS enzyme assay
[4] = running text, read-out: IC50 in the E. coli cell-based assay

Chain of E. coli β-glucuronidase (P05804 whole entry): as the sequence (P05804 whole entry) above

CC1(C)Cc2cccc(Oc3ccc(S(=O)(=O)NCc4cccc5ccccc45)s3)c2O1 [BRITE-354502]
IC50 (E. coli β-glucuronidase; read-out: IC50, β-Glucuronidase Inhibitory activity of phenoxythiophene sulfonamides): 965 µM

NC[C@H]1O[C@H](O[C@H]2[C@H](O)[C@@H](O[C@H]3O[C@H](CO)[C@@H](O)[C@H](N)[C@H]3O)[C@H](N)C[C@@H]2N)[C@H](O)[C@@H](O)[C@@H]1O [Kanamycin]
inhibition at 50 µg/mL (E. coli cells; read-out: reduction of activity in the viability assay): > 90%

NNCCc1ccccc1 [Phenelzine, phenelzine]
IC50 ([1]; average of at least three determinations, 2 hrs at 37° C., read-out: E. coli Cell-Based Assay IC50 ± SD): 7.12 µM | potency shift, less potent in the cell-based assay compared to the enzyme assay [1]: 2.6 fold | inhibition in the Prestwick collection screen (E. coli β-glucuronidase; 10 µM): > 50% | inhibition at 10 µM (E. coli β-glucuronidase; read-out: inhibition in the Prestwick collection screen): 62% | IC50 (MAO): 0.07 to 0.9 µM | IC50 (E. coli GUS; running text, listed as phenelzine, read-out: average IC50 in the E. coli GUS enzyme assay): 2.28 µM | IC50 (E. coli GUS; [3]): 2.2 µM

OC(c1cc(C(F)(F)F)nc2c(C(F)(F)F)cccc12)C1CCCCN1 (stereo not drawn) [Mefloquine, mefloquine]
potency shift, less potent in the cell-based assay compared to the enzyme assay [1]: over 4.9 fold | potency shift, less potent in the cell-based assay compared to the enzyme assay ([1]; listed as mefloquine): 5 fold | IC50 ([1]; read-out: IC50 in the E. coli cell-based assay): 6 µM | viability at 10 µM (E. coli cells; read-out: viability of E. coli): 100% | IC50 (E. coli GUS; listed as mefloquine hydrochloride, read-out: average IC50 in the E. coli GUS enzyme assay): 1.21 µM

Cc1cc(C(=O)NNCc2ccccc2)no1 [Isocarboxazid, isocarboxazid]
IC50 [1, 4]: 0.336 ± 0.12 µM | activity against purified mammalian GUS, in words [2]: no significant activity; also recorded: do not inhibit | IC50 (E. coli GUS; average of at least three determinations, read-out: E. coli GUS Enzyme Assay IC50 ± SD): 0.128 ± 0.056 µM

O=C(CCNNC(=O)c1ccncc1)NCc1ccccc1 [Nialamide, nialamide]
potency shift, more potent in the cell-based assay compared to the E. coli GUS enzyme assay ([1]; more potent in cells): 4 fold | IC50 [1, 4]: 0.017 µM | activity against purified mammalian GUS, in words [2]: no significant activity; also recorded: do not inhibit | IC50 ([2]; average of at least three determinations, read-out: B. taurus GUS Enzyme Assay IC50 ± SD): 74.8 µM | IC50 ([2]; running text, read-out: IC50 against purified mammalian GUS): ~75 µM | IC50 (monoamine oxidase): 2.6 to 13 µM | IC50 (E. coli GUS; [3]): 0.071 µM

Source: patent US20210087163A1, “PHENOXY THIOPHENE SULFONAMIDES AND OTHER COMPOUNDS FOR USE AS INHIBITORS OF BACTERIAL GLUCURONIDASE” (NORTH CAROLINA CENTRAL UNIVERSITY, priority 2010, published 2021)
